{"source": "patent US12186303B2", "about": "“Feed additive for cattle comprising n-acetyl-l-tryptophan as active ingredient” (CJ CHEILJEDANG CORPORATION, priority 2018, dated 2025)", "key": {"Korean native steers [1]": {"tested_on": "Korean native steers", "assay": "Complete blood cell count (CBC) under heat stress conditions", "assay_type": "in vivo, Korean native cattle", "details": "for GRA (0-2.4) / HCT (23-33) / HGB (8.0-15.0) / LYM (2.5-7.5) / MCH (14-18) / MCHC (30-36) / MCV (40-60) / MON (0-0.84) / MPV (4.5-7.6) / PCT (0.15-0.40) / PDW (56-80) / PLT (100-800) / RBC (5.0-10.0) / RDW (16-20) / WBC (4.0-12.0): 0.1% NALT", "text": "(§1) After grouping the animals by statistical analysis of initial body weights, the animals were bred in 1.0×1.5 m^2 individual pens during the experiment period. The feed was offered based on an amount of dry matter of daily total mixed ration (TMR) per head. After 7 days of an adaptation period for N-acetyl-L-tryptophan (NALT), a mixture of 0.1% N-acetyl-L-tryptophan (NALT) and the total mixed ration was fed to individual animals every morning at 8 a.m. for 6 weeks, and water was available ad libitum. Total amounts of L-tryptophan ingested by the control and the experimental group (NALT-treated group) by feeding NALT were 6.0 g/day/head and 18.2 g/day/head, respectively. The experiment was performed such that the NALT-treated group ingested 12.2 g/day/head more L-tryptophan than the control.\n(§2) Meanwhile, results of growth performance analysis (body weight and average feed intake) and genetic analysis of loin tissue were obtained by statistically comparing and analyzing significant differences between the control and the NALT-treated group, and results of hematological analysis were obtained via statistical comparison and analysis depending on NALT treatment, experiment period (days), and interaction (treatment×days). These numerical values were expressed as average values, and a significance test was performed at the 5% level using Student's t-test by using a JMP 5.0 software package (SAS Institute Inc., Cary, NC, USA).\nBlood samples were collected from a jugular vein of each sentinel animal before offering the feed at the starting day of the experiment (week 0), the mid-point of the experiment (week 5), and the final day of the experiment (week 10) and stored in a vacutainer (Becton Dickinson, Franklin Lakes, NJ, USA). Complete blood cell count (CBC) was performed using whole blood using a VetScan HM2 (Abaxis, Union City, CA, USA), and hematological properties were identified using serum with a biochemical autoanalyzer (FUJI DRI-CHEM 7000, Fujifilm, Tokyo, Japan). In addition, total protein (TP), albumin (ALB), creatinine phosphokinase (CPK), and blood urea nitrogen (BUN), which are related to blood protein metabolism, were analyzed; triglycerides (TG) and non-esterified fatty acid (NEFA), which are related to energy metabolism, were analyzed; and sodium (Na), chlorine (CI), and potassium (K), which are blood electrolytes, were analyzed."}, "Korean native steers [2]": {"tested_on": "Korean native steers", "assay": "Hematological analysis (VetScan HM2) under cold stress conditions", "assay_type": "in vivo, Korean native cattle", "set-up": "MON / GRA / RBC / HGB / HCT / MCH / WBC / LYM: unit not given here", "details": "for GRA / HCT / HGB / LYM / MCH / MON / PLT / RBC / WBC: 0.1% NALT", "text": "as §1, with “NALT-treated” for “the experimental”, “group” for “group (NALT-treated group)”, “7.37” for “6.0”, “16.26” for “18.2”, “8.89” for “12.2”, “than that of” for “than”\nas §2, with “using the” for “using a”\nBlood was collected from a jugular vein of each sentinel animal before offering the feed at the starting day of the experiment (week 0), the mid-point of the experiment (week 4), and the final day of the experiment (week 7) and added to a vacutainer (Becton Dickinson, Franklin Lakes, NJ, USA). Hematological analysis was conducted using a VetScan HM2 Hematology System (Abaxis, Union City, CA, USA)."}}, "data": [{"smiles": "CC(=O)N[C@@H](Cc1c[nH]c2ccccc12)C(=O)O", "note": "[NALT, N-acetyl-L-tryptophan]", "values": [{"measurement": "All CBC test indicators, effect of treatment with 0.1% NALT", "setting": "Korean native steers [1]", "result": "No statistically significant difference"}, {"measurement": "Values of hematological indicators (CBC) relative to normal ranges", "setting": "Korean native steers [1]", "result": "within normal ranges"}, {"measurement": "GRA (0-2.4)", "setting": "Korean native steers [1]; Day 0", "result": "3.16 10^3/μL"}, {"measurement": "HCT (23-33)", "setting": "Korean native steers [1]; Day 0", "result": 6.95, "unit": "%"}, {"measurement": "HGB (8.0-15.0)", "setting": "Korean native steers [1]; Day 0", "result": 13.4, "unit": "g/dL"}, {"measurement": "LYM (2.5-7.5)", "setting": "Korean native steers [1]; Day 0", "result": "6.08 10^3/μL"}, {"measurement": "MCH (14-18)", "setting": "Korean native steers [1]; Day 0", "result": 14.8, "unit": "pg"}, {"measurement": "MCHC (30-36)", "setting": "Korean native steers [1]; Day 0", "result": 38.3, "unit": "g/dL"}, {"measurement": "MCV (40-60)", "setting": "Korean native steers [1]; Day 0", "result": 38.8, "unit": "fL"}, {"measurement": "MON (0-0.84)", "setting": "Korean native steers [1]; Day 0", "result": "0.22 10^3/μL"}, {"measurement": "MPV (4.5-7.6)", "setting": "Korean native steers [1]; Day 0", "result": 6.95, "unit": "fL"}, {"measurement": "PCT (0.15-0.40)", "setting": "Korean native steers [1]; Day 0", "result": 0.24, "unit": "%"}, {"measurement": "PDW (56-80)", "setting": "Korean native steers [1]; Day 0", "result": 34.1, "unit": "%"}, {"measurement": "PLT (100-800)", "setting": "Korean native steers [1]; Day 0", "result": "332 10^3/μL"}, {"measurement": "RBC (5.0-10.0)", "setting": "Korean native steers [1]; Day 0", "result": "9.13 10^6/μL"}, {"measurement": "RDW (16-20)", "setting": "Korean native steers [1]; Day 0", "result": 23.6, "unit": "%"}, {"measurement": "WBC (4.0-12.0)", "setting": "Korean native steers [1]; Day 0", "result": "9.60 10^3/μL"}, {"measurement": "GRA (0-2.4)", "setting": "Korean native steers [1]; Day 35", "result": "3.61 10^3/μL"}, {"measurement": "HCT (23-33)", "setting": "Korean native steers [1]; Day 35", "result": 6.58, "unit": "%"}, {"measurement": "HGB (8.0-15.0)", "setting": "Korean native steers [1]; Day 35", "result": 11.7, "unit": "g/dL"}, {"measurement": "LYM (2.5-7.5)", "setting": "Korean native steers [1]; Day 35", "result": "5.67 10^3/μL"}, {"measurement": "MCH (14-18)", "setting": "Korean native steers [1]; Day 35", "result": 14.7, "unit": "pg"}, {"measurement": "MCHC (30-36)", "setting": "Korean native steers [1]; Day 35", "result": 37.1, "unit": "g/dL"}, {"measurement": "MCV (40-60)", "setting": "Korean native steers [1]; Day 35", "result": 40.0, "unit": "fL"}, {"measurement": "MON (0-0.84)", "setting": "Korean native steers [1]; Day 35", "result": "0.46 10^3/μL"}, {"measurement": "MPV (4.5-7.6)", "setting": "Korean native steers [1]; Day 35", "result": 6.58, "unit": "fL"}, {"measurement": "PCT (0.15-0.40)", "setting": "Korean native steers [1]; Day 35", "result": 0.24, "unit": "%"}, {"measurement": "PDW (56-80)", "setting": "Korean native steers [1]; Day 35", "result": 31.5, "unit": "%"}, {"measurement": "PLT (100-800)", "setting": "Korean native steers [1]; Day 35", "result": "371 10^3/μL"}, {"measurement": "RBC (5.0-10.0)", "setting": "Korean native steers [1]; Day 35", "result": "8.04 10^6/μL"}, {"measurement": "RDW (16-20)", "setting": "Korean native steers [1]; Day 35", "result": 22.7, "unit": "%"}, {"measurement": "WBC (4.0-12.0)", "setting": "Korean native steers [1]; Day 35", "result": "9.74 10^3/μL"}, {"measurement": "GRA (0-2.4)", "setting": "Korean native steers [1]; Day 70", "result": "3.66 10^3/μL"}, {"measurement": "HCT (23-33)", "setting": "Korean native steers [1]; Day 70", "result": 9.80, "unit": "%"}, {"measurement": "HGB (8.0-15.0)", "setting": "Korean native steers [1]; Day 70", "result": 13.8, "unit": "g/dL"}, {"measurement": "LYM (2.5-7.5)", "setting": "Korean native steers [1]; Day 70", "result": "4.91 10^3/μL"}, {"measurement": "MCH (14-18)", "setting": "Korean native steers [1]; Day 70", "result": 15.7, "unit": "pg"}, {"measurement": "MCHC (30-36)", "setting": "Korean native steers [1]; Day 70", "result": 37.1, "unit": "g/dL"}, {"measurement": "MCV (40-60)", "setting": "Korean native steers [1]; Day 70", "result": 42.5, "unit": "fL"}, {"measurement": "MON (0-0.84)", "setting": "Korean native steers [1]; Day 70", "result": "0.81 10^3/μL"}, {"measurement": "MPV (4.5-7.6)", "setting": "Korean native steers [1]; Day 70", "result": 9.80, "unit": "fL"}, {"measurement": "PCT (0.15-0.40)", "setting": "Korean native steers [1]; Day 70", "result": 0.24, "unit": "%"}, {"measurement": "PDW (56-80)", "setting": "Korean native steers [1]; Day 70", "result": 29.5, "unit": "%"}, {"measurement": "PLT (100-800)", "setting": "Korean native steers [1]; Day 70", "result": "196 10^3/μL"}, {"measurement": "RBC (5.0-10.0)", "setting": "Korean native steers [1]; Day 70", "result": "8.83 10^6/μL"}, {"measurement": "RDW (16-20)", "setting": "Korean native steers [1]; Day 70", "result": 23.6, "unit": "%"}, {"measurement": "WBC (4.0-12.0)", "setting": "Korean native steers [1]; Day 70", "result": "9.38 10^3/μL"}, {"measurement": "All hematological indicators except for monocytes, compared with the control", "setting": "Korean native steers [2]", "result": "No statistically significant difference"}, {"measurement": "Hematological indicator values relative to normal ranges", "setting": "Korean native steers [2]", "result": "within normal ranges"}, {"measurement": "GRA", "setting": "Korean native steers [2]; 0 wks", "result": 3.01}, {"measurement": "HCT", "setting": "Korean native steers [2]; 0 wks", "result": 35.00}, {"measurement": "HGB", "setting": "Korean native steers [2]; 0 wks", "result": 13.60}, {"measurement": "LYM", "setting": "Korean native steers [2]; 0 wks", "result": 5.55}, {"measurement": "MCH", "setting": "Korean native steers [2]; 0 wks", "result": 12.83}, {"measurement": "MON", "setting": "Korean native steers [2]; 0 wks", "result": 0.10}, {"measurement": "PLT", "setting": "Korean native steers [2]; 0 wks", "result": 378.0}, {"measurement": "RBC", "setting": "Korean native steers [2]; 0 wks", "result": 10.70}, {"measurement": "WBC", "setting": "Korean native steers [2]; 0 wks", "result": 8.66}, {"measurement": "GRA", "setting": "Korean native steers [2]; 4 wks", "result": 2.09}, {"measurement": "HCT", "setting": "Korean native steers [2]; 4 wks", "result": 34.64}, {"measurement": "HGB", "setting": "Korean native steers [2]; 4 wks", "result": 14.20}, {"measurement": "LYM", "setting": "Korean native steers [2]; 4 wks", "result": 6.55}, {"measurement": "MCH", "setting": "Korean native steers [2]; 4 wks", "result": 13.80}, {"measurement": "MON", "setting": "Korean native steers [2]; 4 wks", "result": 0.06}, {"measurement": "PLT", "setting": "Korean native steers [2]; 4 wks", "result": 476.8}, {"measurement": "RBC", "setting": "Korean native steers [2]; 4 wks", "result": 10.34}, {"measurement": "WBC", "setting": "Korean native steers [2]; 4 wks", "result": 8.70}, {"measurement": "GRA", "setting": "Korean native steers [2]; 7 wks", "result": 3.29}, {"measurement": "HCT", "setting": "Korean native steers [2]; 7 wks", "result": 33.88}, {"measurement": "HGB", "setting": "Korean native steers [2]; 7 wks", "result": 13.68}, {"measurement": "LYM", "setting": "Korean native steers [2]; 7 wks", "result": 5.98}, {"measurement": "MCH", "setting": "Korean native steers [2]; 7 wks", "result": 13.70}, {"measurement": "MON", "setting": "Korean native steers [2]; 7 wks", "result": 0.08}, {"measurement": "PLT", "setting": "Korean native steers [2]; 7 wks", "result": 379.5}, {"measurement": "RBC", "setting": "Korean native steers [2]; 7 wks", "result": 10.08}, {"measurement": "WBC", "setting": "Korean native steers [2]; 7 wks", "result": 9.34}]}]}
